Assay type in all cases: cell-based, human
One assay relates to mTOR. Description: mTOR inhibition (RPS6 phosphorylation status), In-Cell Western. The procedure, abridged: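 Read-out is In-Cell Western near-infrared imaging of phospho-RPS6 (Ser-235/236) against total RPS6, using overnight 4° C primary staining and DyLight 680/800 secondaries. Compounds were given to WI-38 cells for 24 hrs at three doses: 5, 10 and 20 μM.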
For the next assay, the system named is FOXO3. Description: qPCR analysis of FOXO3-regulated genes. Particulars: for Induction of at least two of five FOXO3-regulated genes (SOD2, GADD45A, CAT, DDB1, TXNIP): WI-38; for fold induction at 10 µM: Homo sapiens; for K = Sestrin induction: score. The procedure, abridged: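 FOXO3 target-gene expression quantified by qPCR normalised to B2M, PPIA and GAPDH, in WI-38 cells after 24 h exposure to 10 μM compound. Some runs used cells first transfected 36 h with 10 nM FOXO3 or NRF2 siRNA and replated ~24 h before dosing.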
(Real-time PCR tracks product formation cycle by cycle.)

A further assay relates to NRF2. Description: in vitro.
For the next assay, the system named is WI-38 cells. Description: Propidium iodide (PI) cell-death imaging upon H2O2 stress. Particulars: for Assay 7: H2O2-resistant, at 10 uM, validated by propidium iodide (PI) cell-death imaging: w/H2O2, 3 hrs/4 hrs/5 hrs, YES/NO; for cytotoxicity at 10 µM: Homo sapiens, WI-38.
The mark [1] stands for this setting: 24 h, Assay 10(m), at 10 uM, qPCR, read-out: Induction of FOXO3-regulated genes: CAT normalized fold-change.
Setting [2] is: 24 h, Assay 10(m), at 10 uM, qPCR, read-out: Induction of FOXO3-regulated genes: DDB1 normalized fold-change.
[3] abbreviates: 10 μM, 24 hrs, WI-38 cells, qPCR, normalized to B2M, n = 4, read-out: CAT expression, normalized fold change (FOXO3-regulated gene).
[4] abbreviates: 10 μM, 24 hrs, WI-38 cells, qPCR, normalized to B2M, n = 4, read-out: DDB1 expression, normalized fold change (FOXO3-regulated gene).
[5] abbreviates: WI-38 cells, 10 μM, 24 hrs, n=4, qPCR normalized by B2M, read-out: DDB1 Normalized fold change.
The mark [6] stands for this setting: WI-38 cells, 10 μM, 24 hrs, n=4, qPCR normalized by B2M, read-out: GADD45A Normalized fold change.
Setting [7] is: WI-38 cells, 10 μM, 24 hrs, n=4, qPCR normalized by B2M, read-out: SESN1 Normalized fold change.
[8] abbreviates: fold change, qPCR, WI-38 cells, 10 μM, 24 hrs, read-out: Summary of effects on FOXO3-regulated genes: CAT.
Setting [9] is: fold change, qPCR, WI-38 cells, 10 μM, 24 hrs, read-out: Summary of effects on FOXO3-regulated genes: DDB1.
Setting [10] is: qPCR, WI-38 cells, 10 μM, n=4, 24 hrs, normalized by B2M, read-out: CAT Normalized fold change.
Setting [11] is: qPCR, WI-38 cells, 10 μM, n=4, 24 hrs, normalized by B2M, read-out: SOD2 Normalized fold change.
Where [12] appears, read: qPCR, WI-38 cells, 10 μM, n=4, 24 hrs, normalized by B2M, read-out: TXNIP Normalized fold change.
[13] abbreviates: H2O2 3 hrs, 10 uM, n = 6, negative control 5.44% ± 0.79%, read-out: Percentage of propidium iodide-positive dead cells (under H2O2 stress treatment), 3 hrs.
Setting [14] is: H2O2 4 hrs, 10 uM, n = 6, negative control 16.81% ± 1.42%, read-out: Percentage of propidium iodide-positive dead cells (under H2O2 stress treatment), 4 hrs.
Where [15] appears, read: pre-treatment at 10 uM, 3.5 hours of H2O2, DMSO control 27.4% ± 6.5%, */**/*** = reduced by one/two/three standard deviations, read-out: Percentage of propidium iodide-positive dead cells (under H2O2 stress treatment), at 10 uM.

Entries after “also recorded” stand apart in the source; their conditions may differ. Read-outs that look alike come from different tables or passages of the source.

For `COc1ccc(C(=O)/C=C/c2cccc(Cl)c2)c(OC)c1` [Gr-4C], the “G = mTOR down-regulation” value with mTOR (2-point score) and in the assay with mTOR (summary score) was 0 in each case. Besides, the “Induction of at least two of five FOXO3-regulated genes (SOD2, GADD45A, CAT, DDB1, TXNIP)” value in the assay with FOXO3 (10 μM, 24 hrs) is “significant induction; also recorded: significant, induction”. In addition, the “E = Potential FOXO3 Activation” value in the assay with FOXO3 (2-point score) and in the assay on FOXO3 (summary score) was 0 in each case. The fold induction at 10 µM in the assay on FOXO3 (setting [1]) is 1.19; in the assay on FOXO3 (setting [2]), 1.51; in the assay with FOXO3 (24 h, Assay 10(m), at 10 uM, qPCR, read-out: Induction of FOXO3-regulated genes: GADD45A normalized fold-change) it was 1.23; in the assay on FOXO3 (24 h, Assay 10(m), at 10 uM, qPCR, read-out: Induction of FOXO3-regulated genes: SESN1 normalized fold-change), 1.42; in the assay with FOXO3 (24 h, Assay 10(m), at 10 uM, qPCR, read-out: Induction of FOXO3-regulated genes: TXNIP normalized fold-change) it was 0.18; in the assay with FOXO3 (setting [3]) it was 1.19. The fold induction at 10 µM with FOXO3 (setting [4]) worked out at 1.51; in the assay with FOXO3 (10 μM, 24 hrs, WI-38 cells, qPCR, normalized to B2M, n = 4, read-out: GADD45A expression, normalized fold change (FOXO3-regulated gene)), 1.23; in the assay on FOXO3 (10 μM, 24 hrs, WI-38 cells, qPCR, normalized to B2M, n = 4, read-out: SESN1 expression, normalized fold change (FOXO3-regulated gene)) it was 1.42; with FOXO3 (10 μM, 24 hrs, WI-38 cells, qPCR, normalized to B2M, n = 4, read-out: TXNIP expression, normalized fold change (FOXO3-regulated gene)) it was 0.18; in the assay on FOXO3 (setting [5]), 1.51; in the assay on FOXO3 (setting [6]), 1.23. The fold induction at 10 µM in the assay on FOXO3 (setting [7]) was found to be 1.42; in the assay on FOXO3 (setting [8]) it was 1.19; with FOXO3 (setting [9]), 1.51; in the assay with FOXO3 (fold change, qPCR, WI-38 cells, 10 μM, 24 hrs, read-out: Summary of effects on FOXO3-regulated genes: GADD45A), 1.23; in the assay with FOXO3 (fold change, qPCR, WI-38 cells, 10 μM, 24 hrs, read-out: Summary of effects on FOXO3-regulated genes: SESN1), 1.42; in the assay on FOXO3 (fold change, qPCR, WI-38 cells, 10 μM, 24 hrs, read-out: Summary of effects on FOXO3-regulated genes: TXNIP), 0.18. Also, the fold induction at 10 µM in the assay on FOXO3 (setting [10]) came to 1.19; with FOXO3 (setting [11]) it was 1.04; in the assay on FOXO3 (setting [12]), 0.179. Moreover, the “K = Sestrin induction” value with FOXO3 came to 0. Further, the “J = NRF2-dependency for H2O2-resistance” value in the assay with NRF2 (score) and in the assay on NRF2 (summary score) was 0 each time. In the assay on WI-38 cells (10 uM), the “Assay 7: H2O2-resistant, at 10 uM, validated by propidium iodide (PI) cell-death imaging” value (“Assay 7: H2O2-resistant, at 10 uM” for short) is listed as “YES”. Besides, the cytotoxicity at 10 µM in the assay with WI-38 cells (setting [13]) is 4.02%; in the assay on WI-38 cells (setting [14]), 6.21%; with WI-38 cells (setting [15]), 17.4%.

As to `CCc1ccc(Oc2nc3ccccn3c(=O)c2/C=C(\C#N)C(=O)NC2CCCCC2)cc1` [Gr-5A], the “G = mTOR down-regulation” value in the assay on mTOR (2-point score) and in the assay with mTOR (summary score) was 0 throughout. The “E = Potential FOXO3 Activation” value in the assay on FOXO3 (2-point score) and with FOXO3 (summary score) was 0 throughout. Besides, the fold induction at 10 µM worked out at 1.2 in the assay on FOXO3 (setting [5]); 0.841 in the assay on FOXO3 (setting [6]); 1.38 with FOXO3 (setting [7]); 1.17 in the assay on FOXO3 (setting [10]); 1.12 with FOXO3 (setting [11]); 1.14 with FOXO3 (setting [12]). Also, in the assay on FOXO3, the “K = Sestrin induction” value was determined as 0. Also, the “J = NRF2-dependency for H2O2-resistance” value in the assay on NRF2 (score) and in the assay on NRF2 (summary score) was 0 in each case. For the same compound, the “Assay 7: H2O2-resistant, at 10 uM” value in the assay on WI-38 cells (10 uM) is listed as “YES”. The cytotoxicity at 10 µM with WI-38 cells (setting [13]) was 1.64%; in the assay on WI-38 cells (setting [14]), 8.97%; in the assay on WI-38 cells (setting [15]), 3.7%.

As to `Cc1ccc(S(=O)(=O)Nc2cccc3cccnc23)cc1` [Gr-3B], the “G = mTOR down-regulation” value in the assay with mTOR (2-point score) and with mTOR (summary score) was 0 throughout. The “E = Potential FOXO3 Activation” value in the assay with FOXO3 (2-point score) and in the assay with FOXO3 (summary score) was 0 in each case. Also, the fold induction at 10 µM with FOXO3 (setting [5]) amounted to 1.12; with FOXO3 (setting [6]), 1.16; with FOXO3 (setting [7]), 1.07; in the assay with FOXO3 (setting [10]) it was 1.11; with FOXO3 (setting [11]), 1.14; with FOXO3 (setting [12]) it was 1.06. Further, in the assay on FOXO3, the “K = Sestrin induction” value came out at 0. Also, the “J = NRF2-dependency for H2O2-resistance” value in the assay with NRF2 (score) and in the assay with NRF2 (summary score) was 0 throughout. Also, in the assay on WI-38 cells (10 uM), the “Assay 7: H2O2-resistant, at 10 uM” value is “YES”. Besides, the cytotoxicity at 10 µM in the assay with WI-38 cells (setting [13]) amounted to 4.63%; in the assay with WI-38 cells (setting [15]), 2.6%.

`COc1ccc(C(=O)/C=C/c2ccc(F)cc2)c(OC)c1` [Gr-4A]: the “G = mTOR down-regulation” value in the assay with mTOR (2-point score) and with mTOR (summary score) was 0 in each case. In addition, the “Induction of at least two of five FOXO3-regulated genes (SOD2, GADD45A, CAT, DDB1, TXNIP)” value in the assay on FOXO3 (10 μM, 24 hrs) was “significant induction; also recorded: significant, induction”. The “E = Potential FOXO3 Activation” value in the assay on FOXO3 (2-point score) and with FOXO3 (summary score) was 0 in each case. For the same compound, the fold induction at 10 µM in the assay on FOXO3 (setting [1]) worked out at 1.26; in the assay on FOXO3 (setting [2]), 1.2; in the assay with FOXO3 (setting [3]), 1.26; in the assay on FOXO3 (setting [4]) it was 1.2; in the assay on FOXO3 (setting [5]) it was 1.2; in the assay with FOXO3 (setting [6]), 0.981. The fold induction at 10 µM in the assay on FOXO3 (setting [7]) came to 1.12; with FOXO3 (setting [8]), 1.26; in the assay with FOXO3 (setting [9]), 1.2; in the assay with FOXO3 (setting [10]), 1.26; in the assay with FOXO3 (setting [11]), 0.98; in the assay on FOXO3 (setting [12]) it was 0.819. Besides, the “K = Sestrin induction” value with FOXO3 worked out at 0. Besides, the “J = NRF2-dependency for H2O2-resistance” value in the assay with NRF2 (score) and in the assay with NRF2 (summary score) was 0 throughout. Besides, the “Assay 7: H2O2-resistant, at 10 uM” value with WI-38 cells (10 uM) is on record as “YES”. For the same compound, the cytotoxicity at 10 µM was 1.87% in the assay on WI-38 cells (setting [13]) and 1.9% in the assay with WI-38 cells (setting [15]).

The values are drawn from patent US11413278B2, “Compounds and methods for promoting stress resistance” (priority 2015, dated 2022).
